The subject of one series is EBV. Description: Anti-EBV activity, EBV DNA slot blot in H1 cells. The format is cell-based, Epstein Barr virus. As to conditions: concentration that inhibits 50% of virus growth, 5 days. On the procedure: (§1) Virus growth inhibition assay. Confluent virus permissive cells in 12-well plates are inoculated with the virus at 30˜40 pfu/well. After one-hour adsorption at 37° C., the inoculum is replaced with the medium containing 10% of dialyzed FBS and tested compounds at various dosages. Each dosage is duplicated. The infected cells are harvested at 72-hour postinfection. For HSV virus, the plaque reduction assay is performed to measure the virus growth. ID50 is designated as the dosage that inhibits 50% of plaque formation compared with untreated controls. For VZV and EBV, the infected cells are lysed by “freeze-thaw” and the lysate is treated with protease K and RNase. The DNA is then subjected to slot-blot as described previous (Yao, et al., Biochem. Pharmacol. 51: 941-947). The viral DNA is detected by hybridization with ^32P-labeled DNA fragment of viral specific gene. Autoradiographic results are quantitated by Personal Densitometer SI (Molecular Dynamics., Sunnyvale, Calif.). The same membrane is stripped and rehybridized with human β-actin gene fragment. The viral DNA amount is subsequently normalized by viral DNA/human actin DNA. The concentration of the tested compounds, which inhibit 50% of viral DNA synthesis compared to untreated control, is defined as IC50.
A high yield of EBV producing cell line H1 derived from human P3HR1 cells was used in this study. Cells were cultured in RPMI medium supplemented with 10% dialyzed fetal bovine serum and 100 μg/ml Kanamycin and were grown at 37° C. in a humidified incubator containing 5% CO2.
H1 cells were maintained in logarithmic phase of growth for two days prior to the initiation of treatment. The H1 cells were seeded in 24 well plates at the density of 2×10^5 cells per well in 2 ml of fresh medium with or without drug treatment and were incubated at 37° C. for 5 days. Following the period of drug treatment the cells were pelleted and used to determine the inhibitory effect of drug on EBV DNA by slot blot assay.
A total of 4×10^5 H1 cells treated with the various nucleoside analogs (as set forth below) were lysed in 400 μl of 10 mM Tris-HCl (pH 7.5) solution by freezing and thawing 3 times. The cell lysate was treated with RNAase A (at a final concentration of 50 μg/ml) at 37° C. for 30 minutes and then with proteinase K (at a final concentration of 100 μg/ml) at 55° C. for 2 hr. The samples were denatured by adjusting the final concentration to 0.4N NaOH/10 mM EDTA at pH 8.2. After heating for 10 minutes in a water bath at 100° C., the samples were spotted onto positively charged nylon membrane using a manifold. […] The amount of EBV DNA in treated H1 cells was determined according to the ratio of EBV DNA to Alu DNA in comparison with non-treatment control H1 cells. […]

For another series, the system named is VZV. Description: Virus growth inhibition assay, VZV viral DNA slot-blot. The format is cell-based, Varicella-Zoster virus. Particulars: read-out: IC50 VZV. On the procedure: Virus growth inhibition assay. Confluent virus permissive cells in 12-well plates are inoculated with the virus at 30˜40 pfu/well. After one-hour adsorption at 37° C., the inoculum is replaced with the medium containing 10% of dialyzed FBS and tested compounds at various dosages. Each dosage is duplicated. The infected cells are harvested at 72-hour postinfection. For HSV virus, the plaque reduction assay is performed to measure the virus growth. […] For VZV and EBV, the infected cells are lysed by “freeze-thaw” and the lysate is treated with protease K and RNase. […] The viral DNA is detected by hybridization with ^32P-labeled DNA fragment of viral specific gene. Autoradiographic results are quantitated by Personal Densitometer SI (Molecular Dynamics., Sunnyvale, Calif.). The same membrane is stripped and rehybridized with human β-actin gene fragment. The viral DNA amount is subsequently normalized by viral DNA/human actin DNA.

Series [1] in a line: Cell cytotoxicity assay, cell growth. In kind it is cell-based. Particulars: human; CEM cells, three-day growth, 50% inhibition of cell growth. On the procedure: (§2) Cell Cytotoxicity Assay. CEM cells are grown at 2.5×10^4 Cells per ml in RPM1 media supplemented with 20% dialyzed FBS. When cells double, they are seeded in 24-well plates at 1 ml/well. The tested drugs are added at various diluted dosage. After three-day growth at 37° C., 5% CO2, the cells are harvested and counted by using Coulter counter. Cytotoxicity IC50 is designated as the dosage that inhibits 50% of the cell growth compared to the untreated controls.

Another series concerns HSV-1. Description: Virus growth inhibition assay, HSV plaque reduction. In kind it is cell-based, Herpes Simplex virus. On the procedure: as §1
The next series has as its system CEM cells. Description: Cell cytotoxicity assay, cell growth. The format is cell-based. As to conditions: three-day growth, 50% inhibition of cell growth. The protocol:
as §2

Series [2] deals with FU catabolite amino acids. Description: FU metabolites by 19F-NMR in mice after pretreatment with BV analog. In kind it is in vivo. As to conditions: BDF1 mice, 20 mg/kg p.o. two hours before FU 200 mg/kg i.p., one hour after FU. The protocol:
Two hours after injection, 5-Flurouracil (FU) at a concentration of 200 mg/kg was administered i.p. […] Consequently, the coadministration of any one or more of the β-L nucleoside compounds along with FU or an FU produrg in the treatment of cancer to enhance the effectiveness of these agents is meritorious and unexpected.

For series [3] the following is noted: in humans; generally ranging from about 20-30 minutes; cited from earlier work.
Setting [4] is: human gammaherpesvirus 4, 120 h.
The mark [5] stands for this setting: Human alphaherpesvirus 3, concentration that inhibits 50% of virus growth, viral DNA, 72-hour postinfection.
The mark [6] stands for this setting: Human alphaherpesvirus 1, concentration that inhibits 50% of virus growth.
The mark [7] stands for this setting: concentration that inhibits 50% of virus growth, viral DNA, 72-hour postinfection.
The mark [8] stands for this setting: concentration that inhibits 50% of virus growth.

Molecules are shown by their SMILES. Like-named read-outs stand apart in the source and are kept apart here.

For `O=c1[nH]c(=O)n([C@@H]2CO[C@H](CO)O2)cc1/C=C/I` [L-β-IVOddU, (2S,5S)-E-5-(2-Iodovinyl)-1-[2-(hydroxymethyl)-1,3-dioxolan-5-yl]uracil], the melting point is 162 °C (dec.). The IC50 in the series with EBV (setting [4]) is 4.1 µM. Further, the IC50 with VZV (setting [5]) amounted to 0.035 µM. For the same compound, the half-inhibitory concentration (IC50) at 3 days in series [1] was more than 100 µM. Further, in the series on HSV-1 (setting [6]), the half-maximal inhibitory concentration (IC50) worked out at 33 µM.

`O=c1[nH]c(=O)n([C@H]2CO[C@H](CO)O2)cc1/C=C/Cl` [L-α-ClVOddU, (2S,5R)-E-5-(2-Chlorovinyl)-1-[2-(hydroxymethyl)-1,3-dioxolan-5-yl]uracil] yielded a melting point of 101 to 102 °C. In addition, the IC50 in the series on VZV (setting [5]) was more than 30 µM. For the same compound, the IC50 at 3 days in series [1] was more than 100 µM. Further, the IC50 in the series on HSV-1 (setting [6]) is more than 50 µM.

With `O=c1[nH]c(=O)n([C@H]2O[C@@H](CO)[C@H](O)[C@@H]2F)cc1/C=C/Br` [L-BV2′F-dU, E-5-(2-Bromovinyl)-1-(2-deoxy-2-fluoro-β-L-ribofuranosyl) uracil], the IC50 in the series on VZV (setting [5]) is more than 30 µM; with HSV-1 (setting [6]), more than 50 µM. The same compound yielded an IC50 at 3 days in series [1] of more than 100 µM.

Consider `O=c1[nH]c(=O)n([C@H]2CO[C@H](CO)O2)cc1/C=C/Br` [L-α-BVOddU, (2S,5R)-E-5-(2-Bromovinyl)-1-[2-(hydroxymethyl)-1,3-dioxolan-5-yl]uracil], for which the figures for the IC50 with VZV (setting [5]) and in the series with HSV-1 (setting [6]) were more than 30 µM and more than 50 µM, respectively. This compound had an IC50 at 3 days in series [1] of more than 100 µM.

`O=c1[nH]c(=O)n([C@@H]2CO[C@H](CO)O2)cc1Br` [L-BrOddU, reference compound]: the half-maximal inhibitory concentration (IC50) in the series with EBV was 0.2 µM; in the series on VZV (setting [7]) it was more than 30 µM; with CEM cells, more than 100 µM; with HSV-1 (setting [8]), more than 100 µM.

`O=c1[nH]c(=O)n([C@@H]2O[C@H](CO)[C@@H](O)[C@@H]2O)cc1/C=C/Br` [D-ara-BVU, 1-β-D-arabinofuranosyl-(E)-5-(2-bromovinyl)uracil, reference compound]: in series [2], the “effect on FU catabolite amino acids / break-down of FU (in words)” value is given as “decreased from catabolite amino acids”. Moreover, in the series with VZV (setting [5]), the IC50 came out at 0.0007 µM. In addition, in series [1], the IC50 at 3 days is more than 100 µM.

`O=c1[nH]c(=O)n([C@@H]2C[C@@H](O)[C@H](CO)O2)cc1/C=C/Br` [L-BVDU, E-5-(2-Bromovinyl)-2′-deoxy-L-uridine]: the IC50 with VZV (setting [7]) and with CEM cells was more than 100 µM throughout.

`O=c1[nH]c(=O)n([C@H]2C[C@H](O)[C@@H](CO)O2)cc1/C=C/Br` [D-BVDU, (E)-5-(2-bromovinyl)-2′-deoxyuridine, reference compound]: the half-inhibitory concentration (IC50) with VZV (Human alphaherpesvirus 3, 72 h) came out at 0.05 µM. In series [1], the IC50 at 3 days is more than 100 µM.

With `O=c1[nH]c(=O)n([C@H]2CO[C@@H](CO)O2)cc1/C=C/Br` [D-β-BVOddU, (2R,5R)-E-5-(2-Bromovinyl)-1-[2-(hydroxymethyl)-1,3-dioxolan-5-yl]uracil], the IC50 was 26 µM in the series on VZV (setting [5]) and more than 50 µM with HSV-1 (setting [6]). Further, the IC50 at 3 days in series [1] is more than 100 µM.

In the case of `O=c1[nH]cc(F)c(=O)[nH]1` [FU, 5-fluorouracil], the “half-life of FU” value in series [3] is listed as “approximately 25 minutes”.

In the case of `O=c1[nH]c(=O)n([C@@H]2CO[C@H](CO)O2)cc1/C=C/Br` [L-β-BVOddU, (2S,5S)-E-5-(2-Bromovinyl)-1-[2-(hydroxymethyl)-1,3-dioxolan-5-yl]uracil], the “inhibition of FU catabolite amino acids” value in series [2] is given as approximately 100%. For the same compound, the IC50 in the series on VZV (setting [5]) worked out at 0.07 µM; in the series with HSV-1 (setting [6]), 36 µM. Besides, the 50% inhibitory concentration (IC50) at 3 days in series [1] was more than 100 µM.

For `O=c1[nH]c(=O)n([C@@H]2CS[C@H](CO)O2)cc1/C=C/Br` [L-β-BVSddU, (2R,5S)-E-5-(2-Bromovinyl)-1-(2-hydroxymethyl-1,3-oxathiolan-5-yl)uracil], the results for the IC50 in the series with EBV (setting [4]) and in the series with VZV (setting [5]) were more than 50 µM and 12.5 µM, respectively. For the same compound, the IC50 at 3 days in series [1] was more than 100 µM.

As to `Nc1nc(O)c2ncn(CCC(CO)CO)c2n1` [Pencyclovir, reference compound], the IC50 in the series on VZV (setting [7]) is 0.14 µM; in the series on CEM cells it was more than 100 µM; with HSV-1 (setting [8]), 18 µM.

Take `O=c1[nH]c(=O)n([C@@H]2CO[C@H](CO)O2)cc1I` [L-IOddU, reference compound]: the IC50 in the series with EBV is 0.1 µM; with VZV (setting [7]) it was 17 µM; in the series on CEM cells it was more than 100 µM; with HSV-1 (setting [8]), 70 µM.

Consider `Nc1nc2c(ncn2COCCO)c(=O)[nH]1` [Acyclovir, reference compound], for which, in series [1], the IC50 at 3 days was more than 100 µM. The IC50 in the series with HSV-1 (setting [6]) worked out at 13.6 µM.

For the compound `O=c1[nH]c(=O)n([C@@H]2CO[C@@H](CO)O2)cc1/C=C/Br` [D-α-BVOddU, (2R,5S)-E-5-(2-Bromovinyl)-1-[2-(hydroxymethyl)-1,3-dioxolan-5-yl]uracil], the IC50 with VZV (setting [5]) is more than 30 µM; with HSV-1 (setting [6]), more than 50 µM. This compound also yielded an IC50 at 3 days in series [1] of more than 100 µM.

With `O=c1[nH]c(=O)n([C@H]2CO[C@H](CO)O2)cc1/C=C/I` [L-α-IVOddU, (2S,5R)-E-5-(2-Iodovinyl)-1-[2-(hydroxymethyl)-1,3-dioxolan-5-yl]uracil], the melting point was 60 °C (dec.). In addition, the half-maximal inhibitory concentration (IC50) in the series on VZV (setting [5]) was more than 30 µM. The IC50 at 3 days in series [1] was more than 100 µM. In addition, in the series with HSV-1 (setting [6]), the concentration for half-maximal inhibition (IC50) was more than 50 µM.

On to `O=c1[nH]c(=O)n([C@@H]2CO[C@H](CO)O2)cc1/C=C/Cl` [L-β-ClVOdd, (2S,5S)-E-5-(2-Chlorovinyl)-1-[2-(hydroxymethyl)-1,3-dioxolan-5-yl]uracil], for which the IC50 in the series on VZV (setting [5]) came out at 0.15 µM; in the series with HSV-1 (setting [6]), 18 µM. Besides, the 50% inhibitory concentration (IC50) at 3 days in series [1] is more than 100 µM.

Broadly, the IC50 is the concentration that gives 50% inhibition. By melting point is commonly meant the temperature of the solid-liquid transition.

These data come from patent US6653318B1, “5-(E)-Bromovinyl uracil analogues and related pyrimidine nucleosides as anti-viral agents and methods of use” (Yale University, priority 1999, dated 2003).
